Data published in ChEMBL document CHEMBL4808169, “Discovery of Potent and Fast-Acting Antimalarial Bis-1,2,4-triazines” (J Med Chem, 2021).
pEC50, pIC50: −log10 of the molar value. Activity calls are given as the source filed them. The rule behind the calls is not given here.

Experiments:
[1] = Oral availability in Sprague-Dawley rat at 10 mg/kg measured up to 24 hrs by LC-MS analysis; assay type: ADME, organism-based; conditions: in vivo
[2] = Apparent oral availability in Sprague-Dawley rat at 10 mg/kg measured up to 24 hrs by LC-MS analysis; assay type: ADME, organism-based; conditions: in vivo, read-out: Fapp
[3] = Drug metabolism in rat hepatocytes assessed as 3'-propoxy-5,5'-bi(1,2,4-triazin)-3-ol formation by LC-MS/MS(CID) analysis; assay type: ADME, cell-based, Hepatocyte
[4] = Drug metabolism in human hepatocytes assessed as oxygenated metabolite M+16(2) formation by LC-MS/MS(CID) analysis; assay type: ADME, cell-based, Hepatocyte
[5] = Drug metabolism in rat liver microsomes assessed as N-methyl-2-(3'-propoxy-5,5'-bi(1,2,4-triazin)-3-yloxy)ethanamine formation by LC-MS/MS(CID) analysis; assay type: ADME, Microsome
[6] = test system: Plasmodium; assay: Antimalarial activity against Plasmodium assessed as transmission blocking potential by measuring reduction in male gamete formation by dual gamete formation assay; assay type: functional, organism-based
[7] = Kinetic solubility of compound at pH 2 by nephelometry; assay type: physicochemical; conditions: buffer, read-out: Kinetic_solubility
[8] = Drug metabolism in mouse liver microsomes assessed as oxygenated metabolite M+16(2) formation by LC-MS/MS(CID) analysis; assay type: ADME, Microsome
[9] = Drug metabolism in human hepatocytes assessed as 3'-propoxy-5,5'-bi(1,2,4-triazin)-3-ol formation by LC-MS/MS(CID) analysis; assay type: ADME, cell-based, Hepatocyte
[10] = Drug metabolism in mouse hepatocytes assessed as N-methyl-2-(3'-propoxy-5,5'-bi(1,2,4-triazin)-3-yloxy)ethanamine formation by LC-MS/MS(CID) analysis; assay type: ADME, cell-based, Hepatocyte
[11] = Volume of distribution at steady state in Swiss mouse at 2.7 mg/kg, iv measured up to 24 hrs by LC-MS analysis; assay type: ADME, organism-based; conditions: in vivo, read-out: Vdss
[12] = Drug metabolism in rat liver microsomes assessed as oxygenated metabolite N-methyl-2-(3'-propoxy-5,5'-bi(1,2,4-triazin)-3-yloxy)ethanamine oxide formation by LC-MS/MS(CID) analysis; assay type: ADME, Microsome
[13] = test system: Plasmodium falciparum; assay: Antiplasmodial activity against Plasmodium falciparum 3D70087/N9 infected in NOD-SCID 1L2Rgamma mouse assessed as reduction in parasitemia at 50 mg/kg, po administered for 4 days starting from day 3 post infection by Peter's 4-day test; assay type: functional, organism-based
[14] = Apparent permeability across apical to basolateral side in human Caco2 cells measured over 120 mins by LC-MS analysis; assay type: ADME, cell-based; conditions: Caco-2
[15] = Ratio of drug level in blood to plasma in Sprague-Dawley rat at 3 mg/kg, iv administered as infusion for 10 mins measured after 1 hr by LC-MS analysis; assay type: ADME, organism-based; conditions: whole blood and plasma
[16] = Intrinsic clearance in mouse hepatocytes assessed per million cells by UPLC-MS analysis; assay type: ADME, cell-based, Hepatocyte; conditions: read-out: CLH
[17] = Apparent half life in Swiss mouse at 27 mg/kg, po measured up to 24 hrs by LC-MS analysis; conditions: in vivo, read-out: t1/2(app) (converted)
[18] = Tmax in Swiss mouse at 2.8 mg/kg, po measured up to 24 hrs by LC-MS analysis; assay type: ADME, organism-based; conditions: in vivo
[19] = Protein binding in rat plasma measured after 6 hrs by LC-MS analysis based equilibrium dialysis method; assay type: ADME, cell-free; conditions: read-out: PPB (converted)
[20] = Drug metabolism in human liver microsomes assessed as oxygenated metabolite M+16(1) formation by LC-MS/MS(CID) analysis; assay type: ADME, Microsome
[21] = Drug metabolism in human hepatocytes assessed as oxygenated metabolite M+16(1) formation by LC-MS/MS(CID) analysis; assay type: ADME, cell-based, Hepatocyte
[22] = Drug metabolism in mouse liver microsomes assessed as formation of cleavage product M-69 in presence of NADPH by LC-MS/MS(CID) analysis; assay type: ADME, Microsome
[23] = Volume of distribution at steady state in Sprague-Dawley rat plasma at 3 mg/kg, iv measured up to 24 hrs by LC-MS analysis; assay type: ADME, organism-based; conditions: read-out: Vdss
[24] = Drug concentration in blood of NOD-SCID 1L2Rgamma mouse infected with Plasmodium falciparum 3D70087/N9 at 50 mg/kg, po measured after 6 hrs by LC-MS/MS analysis; assay type: ADME, organism-based; conditions: read-out: Drug uptake
[25] = Drug metabolism in mouse liver microsomes assessed as 3'-propoxy-5,5'-bi(1,2,4-triazin)-3-ol formation by LC-MS/MS(CID) analysis; assay type: ADME, Microsome
[26] = Drug metabolism in rat hepatocytes assessed as glucuronides/sulfates metabolite formation by LC-MS/MS(CID) analysis; assay type: ADME, cell-based, Hepatocyte
[27] = Metabolic stability of compound in Sprague-Dawley rat blood assessed as parent compound loss measured over 4 hrs by LC-MS analysis; assay type: ADME, tissue-based; conditions: whole blood, read-out: Drug degradation
[28] = Oral bioavailability in Swiss mouse at 2.8 mg/kg measured up to 24 hrs; assay type: ADME, organism-based; conditions: in vivo
[29] = Drug metabolism in Sprague-Dawley rat urine assessed as N-methyl-2-(3'-propoxy-5,5'-bi(1,2,4-triazin)-3-yloxy)ethanamine formation at 10 mg/kg, po by high-resolution mass spectrometry; assay type: ADME, organism-based; conditions: in vivo
[30] = Apparent half life in Swiss mouse at 2.7 mg/kg, iv measured up to 24 hrs by LC-MS analysis; assay type: ADME, organism-based; conditions: in vivo, read-out: t1/2(app) (converted)
[31] = Drug metabolism in Sprague-Dawley rat feces assessed as N-methyl-2-(3'-propoxy-5,5'-bi(1,2,4-triazin)-3-yloxy)ethanamine formation at 10 mg/kg, po by high-resolution mass spectrometry; assay type: ADME, organism-based; conditions: in vivo
[32] = Drug metabolism in Sprague-Dawley rat feces assessed as oxygenated metabolite M+16(2) formation at 3 mg/kg, iv by high-resolution mass spectrometry; assay type: ADME, organism-based; conditions: in vivo
[33] = Intrinsic clearance in human hepatocytes assessed per million cells by UPLC-MS analysis; assay type: ADME, cell-based, Hepatocyte; conditions: read-out: CLH
[34] = target: Cytochrome P450 3A4 (Homo sapiens, UniProt P08684); assay: Inhibition of CYP3A4 in human liver microsomes assessed as reduction in testosterone 6beta-hydroxylation activity by high-pressure liquid chromatography-tandem mass spectrometry; assay type: ADME
Cytochrome P450 3A4, sequence (P08684 whole entry): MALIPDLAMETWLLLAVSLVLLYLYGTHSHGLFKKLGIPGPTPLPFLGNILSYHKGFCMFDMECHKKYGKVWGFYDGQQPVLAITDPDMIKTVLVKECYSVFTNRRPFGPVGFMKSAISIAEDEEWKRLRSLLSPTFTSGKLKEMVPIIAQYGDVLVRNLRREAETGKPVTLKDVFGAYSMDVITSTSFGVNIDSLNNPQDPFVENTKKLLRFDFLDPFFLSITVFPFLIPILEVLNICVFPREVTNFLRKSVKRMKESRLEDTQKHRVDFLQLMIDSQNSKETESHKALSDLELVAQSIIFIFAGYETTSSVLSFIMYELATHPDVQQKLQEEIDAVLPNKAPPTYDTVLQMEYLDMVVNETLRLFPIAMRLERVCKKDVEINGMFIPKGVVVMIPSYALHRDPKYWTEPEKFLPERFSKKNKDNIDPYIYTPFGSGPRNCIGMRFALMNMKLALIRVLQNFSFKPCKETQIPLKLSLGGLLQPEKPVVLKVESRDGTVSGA

[35] = test system: Plasmodium falciparum; assay: Antiplasmodial activity against Plasmodium falciparum NF54 by 3H-incorporation growth inhibition assay; assay type: functional, organism-based
[36] = Drug metabolism in human hepatocytes assessed as oxygenated metabolite N-methyl-2-(3'-propoxy-5,5'-bi(1,2,4-triazin)-3-yloxy)ethanamine oxide formation by LC-MS/MS(CID) analysis; assay type: ADME, cell-based, Hepatocyte
[37] = Drug metabolism in Sprague-Dawley rat urine assessed as oxygenated metabolite M+16(1) formation at 3 mg/kg, iv by high-resolution mass spectrometry; assay type: ADME, organism-based; conditions: in vivo
[38] = Half life in mouse liver microsomes in presence of NADPH by UPLC-MS analysis; assay type: ADME, Microsome
[39] = AUC (0 to infinity) in Swiss mouse plasma at 2.8 mg/kg, po measured up to 24 hrs by LC-MS analysis
[40] = Selectivity ratio of CC50 for HEK293 cells to IC50 for Plasmodium falciparum 3D7; assay type: toxicity; conditions: human, read-out: Ratio CC50/IC50
[41] = Half life in human liver microsomes in presence of NADPH by UPLC-MS analysis; assay type: ADME, Microsome
[42] = Efflux ratio of apparent permeability in human Caco2 cells measured over 120 mins by LC-MS analysis; assay type: ADME, cell-based; conditions: Caco-2

CCCOc1nncc(-c2cnnc(OCCN(C)C)n2)n1
bioavailability [1]: 7.49% | bioavailability [2]: 5% | Drug metabolism [3]: Metabolite_Detected | Drug metabolism [4]: Metabolite_Detected | Drug metabolism [5]: Metabolite_Detected | pEC50 [6]: 5.92 | solubility kinetic [7]: > 100 µg/mL | Drug metabolism [8]: Metabolite_Detected | Drug metabolism [9]: Metabolite_Notdetected | Drug metabolism [10]: Metabolite_Detected | Vd [11]: 3.4 L/kg | Drug metabolism [12]: Metabolite_Detected | Activity [13]: Active | Papp A→B at 2 h [14]: 40 ×10⁻⁶ cm/s | blood plasma ratio at 10 min [15]: 1.3 | hepatocyte CLint [16]: 3.7 µL/min/1e6 cells | half-life [17]: 180 min | Tmax [18]: 30 min | fraction unbound at 6 h [19]: 0.78 | Drug metabolism [20]: Metabolite_Detected | Drug metabolism [21]: Metabolite_Detected | Drug metabolism [22]: Metabolite_Detected | Vd [23]: 2.8 L/kg | concentration at 6 h [24]: 150 ng/mL | Drug metabolism [25]: Metabolite_Detected | Drug metabolism [26]: Metabolite_Notdetected | metabolised at 4 h [27]: 15% | bioavailability [28]: 10% | Drug metabolism [29]: Metabolite_Detected | half-life [30]: 12 min | Drug metabolism [31]: Metabolite_Detected | Drug metabolism [32]: Metabolite_Detected | hepatocyte CLint [33]: 3.6 µL/min/1e6 cells | pIC50 [34]: < 4.70 | pIC50 [35]: 7.68 | Drug metabolism [36]: Metabolite_Detected | Drug metabolism [37]: Metabolite_Detected | half-life [38]: 42 min | AUC(0-inf) [39]: 0.038 µM·h | selectivity ratio [40]: > 1000 | half-life [41]: 229 min | efflux ratio at 2 h [42]: 1.1
